From US20240199546A1, “INHIBITORS OF SOLUTE CARRIER FAMILY 6A MEMBER 19 (SLC6A19) AND METHODS OF USE THEREOF” (Maze Therapeutics, Inc., priority 2022, published 2024)

The compounds below were run against T1, human SLC6A19 and TMEM27 (Homo sapiens, UniProt Q695T7) (assay: Radiolabelled (3H) leucine uptake in CHO cells with doxycycline-inducible expression of human SLC6A19 and TMEM27 (Example B-1)). Settings: CHO cells with doxycycline-inducible expression of human SLC6A19 and TMEM27, read-out: SLC6A19_Radioligand Uptake Assay IC50.
T1 construct: expressed in transfected cells
T1 sequence (Q695T7 1-634): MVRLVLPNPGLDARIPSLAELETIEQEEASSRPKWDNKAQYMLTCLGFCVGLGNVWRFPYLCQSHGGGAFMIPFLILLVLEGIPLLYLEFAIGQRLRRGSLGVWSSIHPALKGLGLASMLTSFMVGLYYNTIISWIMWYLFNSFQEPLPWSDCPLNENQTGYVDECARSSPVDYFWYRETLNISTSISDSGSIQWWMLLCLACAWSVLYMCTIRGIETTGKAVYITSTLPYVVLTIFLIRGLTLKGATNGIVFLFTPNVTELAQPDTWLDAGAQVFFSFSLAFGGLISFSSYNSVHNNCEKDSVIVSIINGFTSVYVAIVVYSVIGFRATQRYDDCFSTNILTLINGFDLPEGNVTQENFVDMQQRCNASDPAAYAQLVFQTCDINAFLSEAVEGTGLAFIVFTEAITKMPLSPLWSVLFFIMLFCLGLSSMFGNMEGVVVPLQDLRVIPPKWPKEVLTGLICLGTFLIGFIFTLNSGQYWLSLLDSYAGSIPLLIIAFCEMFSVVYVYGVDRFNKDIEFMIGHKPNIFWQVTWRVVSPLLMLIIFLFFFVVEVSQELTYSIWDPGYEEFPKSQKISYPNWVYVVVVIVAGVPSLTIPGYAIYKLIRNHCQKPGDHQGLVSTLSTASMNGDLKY
T1 sequence (Q9HBJ8 15-222 partner): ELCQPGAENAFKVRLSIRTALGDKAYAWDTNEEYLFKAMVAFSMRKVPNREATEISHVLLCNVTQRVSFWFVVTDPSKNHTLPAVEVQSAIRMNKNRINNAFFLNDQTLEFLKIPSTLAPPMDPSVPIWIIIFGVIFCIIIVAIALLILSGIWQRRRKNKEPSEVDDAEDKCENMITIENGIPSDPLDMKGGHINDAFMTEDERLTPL
Type: cell-based
In short: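 CHO cells were induced with doxycycline for 18 h at 37 °C, washed in HBSS, then exposed to compounds for 1 h: 8-point, 3-fold dilutions in duplicate, 0.5% DMSO final. Uptake measured by scintillation counting after 2 h shaking. Activity normalized with positive control as 0% and DMSO as 100%.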

Structure (SMILES) | IC50 [nM]
CC(=O)NCc1cc2cc(Cl)c(OCc3cscn3)cc2[nH]1 [Compound 141, N-((5-chloro-6-(thiazol-4-ylmethoxy)-1H-indol-2-yl)methyl)acetamide] | 87
O=C(CO)NCc1cc2cc(Cl)c(OCc3cscn3)cc2[nH]1 [Compound 244, N-((5-chloro-6-(thiazol-4-ylmethoxy)-1H-indol-2-yl)methyl)-2-hydroxyacetamide] | 391
COc1cc2cc(CNC(=O)C3(C)CC3)[nH]c2cc1CCn1nccn1 [Compound 591, N-((6-(2-(2H-1,2,3-triazol-2-yl)ethyl)-5-methoxy-1H-indol-2-yl)methyl)-1-methylcyclopropane-1-carboxamide] | 184
CC1(C(=O)NCc2cc3cc(Cl)c(OCC4COCCO4)cc3[nH]2)CC1 (racemic) [Compound 396, (S)-N-((6-((1,4-dioxan-2-yl)methoxy)-5-chloro-1H-indol-2-yl)methyl)-1-methylcyclopropane-1-carboxamide and (R)-N-((6-((1,4-dioxan-2-yl)methoxy)-5-chloro-1H-indol-2-yl)methyl)-1-methylcyclopropane-1-carboxamide] | 644
CCOCCOc1cc2[nH]c(CNC(C)=O)cc2cc1Cl [Compound 459, N-((5-chloro-6-(2-ethoxyethoxy)-1H-indol-2-yl)methyl)acetamide] | 505
Cc1cc(COc2cc3[nH]c(CNC(=O)C4(O)CC4)cc3cc2Cl)on1 [Compound 251, N-((5-chloro-6-((3-methylisoxazol-5-yl)methoxy)-1H-indol-2-yl)methyl)-1-hydroxycyclopropane-1-carboxamide] | 194
O=C(NCc1cc2cc(Cl)c(OCc3cscn3)cc2[nH]1)C12CCC(CC1)C2 [Compound 556, N-((5-chloro-6-(thiazol-4-ylmethoxy)-1H-indol-2-yl)methyl)bicyclo[2.2.1]heptane-1-carboxamide] | 1200
CO[C@H]1C[C@H](Oc2cc3[nH]c(CNC(C)=O)cc3cc2Cl)C1 [Compound 462, N-((5-chloro-6-((trans)-3-methoxycyclobutoxy)-1H-indol-2-yl)methyl)acetamide] | 2000
O=C(NCc1cc2cc(F)c(OCc3ccon3)cc2[nH]1)N1CCCCC1 [Compound 88, N-((5-fluoro-6-(isoxazol-3-ylmethoxy)-1H-indol-2-yl)methyl)piperidine-1-carboxamide] | 477
Cc1cc(COc2cc3[nH]c(CNC(=O)N4CC(F)(F)C4)cc3cc2Cl)on1 [Compound 370, N-((5-chloro-6-((3-methylisoxazol-5-yl)methoxy)-1H-indol-2-yl)methyl)-3,3-difluoroazetidine-1-carboxamide] | 486
Cc1cc(COc2cc3[nH]c(CNC(=O)[C@H](O)CF)cc3cc2Cl)on1 [Compound 246, (S)-N-((5-chloro-6-((3-methylisoxazol-5-yl)methoxy)-1H-indol-2-yl)methyl)-3-fluoro-2-hydroxypropanamide] | 411
O=C(NCc1cc2cc(C3CC3)c(OCc3ccon3)cc2[nH]1)N1CCCC1 [Compound 654, N-((5-cyclopropyl-6-(isoxazol-3-ylmethoxy)-1H-indol-2-yl)methyl)pyrrolidine-1-carboxamide] | 537
O=C(NCc1[nH]c2cc(OCc3cscn3)c(Cl)cc2c1Cl)N1CCC1 [Compound 474, N-((3,5-dichloro-6-(thiazol-4-ylmethoxy)-1H-indol-2-yl)methyl)azetidine-1-carboxamide] | 553
O=C(NCc1cc2cc(OC(F)(F)F)c(CCc3cocn3)cc2[nH]1)N1CCC1 [Compound 467, N-((6-(2-(oxazol-4-yl)ethyl)-5-(trifluoromethoxy)-1H-indol-2-yl)methyl)azetidine-1-carboxamide] | 145
CC(=O)NCc1cc2cc(F)c(OCc3cscn3)cc2[nH]1 [Compound 208, N-((5-fluoro-6-(thiazol-4-ylmethoxy)-1H-indol-2-yl)methyl)acetamide] | 133
CC1(C(=O)NCc2cc3cc(Cl)c(OCc4cnccc4F)cc3[nH]2)CC1 [Compound 356, N-((5-chloro-6-((4-fluoropyridin-3-yl)methoxy)-1H-indol-2-yl)methyl)-1-methylcyclopropane-1-carboxamide] | 389

Other lines, results leading:

IC50 [nM] | Structure (SMILES)
192 | CNC(=O)NCc1cc2cc(Cl)c(OCc3cc(C)on3)cc2[nH]1 [Compound 213, 1-((5-chloro-6-((5-methylisoxazol-3-yl)methoxy)-1H-indol-2-yl)methyl)-3-methylurea]
1960 | Cc1cc(CC(C)c2ccc3cc(CNC(=O)C4(C)CC4)[nH]c3c2)no1 (stereo not drawn) [Compound 153, 1-methyl-N-((6-(1-(5-methylisoxazol-3-yl)propan-2-yl)-1H-indol-2-yl)methyl) cyclopropane-1-carboxamide]
628 | Cc1cc(COc2cc3[nH]c(CNC(=O)[C@H]4C[C@H](O)C4)cc3cc2Cl)on1 [Compound 252, (1R,3R)-N-((5-chloro-6-((3-methylisoxazol-5-yl)methoxy)-1H-indol-2-yl)methyl)-3-hydroxycyclobutane-1-carboxamide]
148 | O=C(NCc1cc2cc(Cl)c(OCc3cscn3)cc2[nH]1)[C@@H]1CCO1 [Compound 315, (S)-N-((5-chloro-6-(thiazol-4-ylmethoxy)-1H-indol-2-yl)methyl)oxetane-2-carboxamide]
6780 | O=C(CN1CCC1)NCc1cc2cc(Cl)c(OCc3cscn3)cc2[nH]1 [Compound 512, 2-(azetidin-1-yl)-N-((5-chloro-6-(thiazol-4-ylmethoxy)-1H-indol-2-yl)methyl)acetamide]
350 | Cc1cc(COc2cc3[nH]c(CNC(=O)C4(C#N)COC4)cc3cc2Cl)on1 [Compound 275, N-((5-chloro-6-((3-methylisoxazol-5-yl)methoxy)-1H-indol-2-yl)methyl)-3-cyanooxetane-3-carboxamide]
889 | CC1(C(=O)NCc2cc3cc(Cl)c(CCn4ncnn4)cc3[nH]2)CC1 [Compound 584, N-((6-(2-(2H-tetrazol-2-yl)ethyl)-5-chloro-1H-indol-2-yl)methyl)-1-methylcyclopropane-1-carboxamide]
420 | C[C@H]1CCN(C(=O)NCc2cc3cc(F)c(OCc4ccon4)cc3[nH]2)C1 [Compound 382, (S)-N-((5-fluoro-6-(isoxazol-3-ylmethoxy)-1H-indol-2-yl)methyl)-3-methylpyrrolidine-1-carboxamide]
141 | O=C(NCc1cc2cc(Cl)c(OCc3cscn3)cc2[nH]1)[C@H]1C[C@H]1F [Compound 541, (1R,2R)-N-((5-chloro-6-(thiazol-4-ylmethoxy)-1H-indol-2-yl)methyl)-2-fluorocyclopropane-1-carboxamide]
284 | O=C(NCc1cc2cc(Cl)c(OCc3cscn3)cc2[nH]1)[C@@H]1CCOC1 [Compound 316, (R)-N-((5-chloro-6-(thiazol-4-ylmethoxy)-1H-indol-2-yl)methyl)tetrahydrofuran-3-carboxamide]
2960 | CC(=O)NCc1cc2cc(Cl)c(OC[C@@H]3CCCO3)cc2[nH]1 [Compound 466, (S)-N-((5-chloro-6-((tetrahydrofuran-2-yl)methoxy)-1H-indol-2-yl)methyl)acetamide]
921 | Cc1cc(COc2cc3[nH]c(CNC(=O)C45COC(C4)C5)cc3cc2Cl)on1 [Compound 298, N-((5-chloro-6-((3-methylisoxazol-5-yl)methoxy)-1H-indol-2-yl)methyl)-2-oxabicyclo[2.1.1]hexane-4-carboxamide]
86.2 | O=C(CC(F)F)NCc1cc2cc(Cl)c(OCc3cscn3)cc2[nH]1 [Compound 513, N-((5-chloro-6-(thiazol-4-ylmethoxy)-1H-indol-2-yl)methyl)-3,3-difluoropropanamide]
113 | Cc1cc(COc2cc3[nH]c(CNC(=O)C4(F)CC4)cc3cc2F)on1 [Compound 572, 1-fluoro-N-((5-fluoro-6-((3-methylisoxazol-5-yl)methoxy)-1H-indol-2-yl)methyl)cyclopropane-1-carboxamide]
264 | Cc1cc(COc2cc3[nH]c(CNC(=O)NC(C)C)cc3cc2Cl)on1 [Compound 638, 1-((5-chloro-6-((3-methylisoxazol-5-yl)methoxy)-1H-indol-2-yl)methyl)-3-isopropylurea]
567 | O=C(NCc1cc2cc(F)c(OCc3ccon3)cc2[nH]1)N1CCC1 [Compound 89, N-((5-fluoro-6-(isoxazol-3-ylmethoxy)-1H-indol-2-yl)methyl)azetidine-1-carboxamide]
147 | CC1(C(=O)NCc2cc3cc(F)c(OCc4ccno4)cc3[nH]2)CC1 [Compound 328, N-((5-fluoro-6-(isoxazol-5-ylmethoxy)-1H-indol-2-yl)methyl)-1-methylcyclopropane-1-carboxamide]
